Laboratory results as given in paper PMC9928118, “Funneling modulatory peptide design with generative models: Discovery and characterization of disruptors of calcineurin protein-protein interactions” (PLOS Computational Biology, 2023).

System: GST-tagged Cn
Assay: PEPperPRINT peptide microarray binding assay with GST-tagged Cn
Description: We then estimated in-silico the binding strength of the various peptides to Cn by template-based docking followed by flexible backbone refinement using Modeller and PepCrawler (Figs 4 and S4). In parallel, we performed a medium-throughput qualitative binding assay using a PEPperPRINT peptide microarray to evaluate the direct binding of Cn to selected peptides (Figs 4 and S5, S3 Data).
Fig 4 Medium-throughput filtering by structural modeling and microarray screening. (a) Depiction of the structural modeling protocol: after alignment to the known PxIxIT binding site, an efficient flexible backbone structure refinement algorithm is applied to estimate the docking energy. […] (c) Coefficients of the equivalent single-site model fitted by sparse linear regression, shown in weight logo representation. […] Colors indicate physical property (black = hydrophobic, red = negatively charged, etc.). (d) Per-gene distribution of docking scores across natural fragments (lower is better). […] (e) Overview of the microarray screening. Peptides are printed on the chip (two circles per peptide). After pouring of Cn and subsequent washing, fluorescent-tagged, a Cn-targeting antibody is overlaid and an image is taken. Fluorescent spots indicate strong Cn binders. (f) Scatter plot of the sequence likelihood (normalized by length, higher is better) against fluorescence level (higher is better, see Methods for details of the data analysis).
In parallel, selected peptides were tested for Cn binding on a chip microarray (PEPperPRINT). 786 peptides were printed on the chip and were incubated with GST-tagged Cn overnight at 4°C. Following extensive washing, binding was detected by applying a fluorescently labeled (Alexa-Fluor 647) GST antibody. […] The experiment was repeated five times, and Z-normalized fluorescence levels were determined following post-processing of the raw data (Methods, S5A, S5B and S5C Fig).
The peptide array was prepared as a custom array pepper chip (PEPperPRINT). For binding detection, 1mg/ml GST-tagged Cn was incubated overnight on the microarray at 4°C. Following extensive washing, fluorescently labeled (Alexa-Fluor 647) GST-antibody. […] The experiment was repeated five times. Each scan was analyzed as follows: a grid was overlaid using the border HA markers to determine regions of interest (ROI) for each peptide (two ROIs per peptide) and the logarithm of the average fluorescence intensity was computed for each ROI. […] To remove spatial artifacts, a position-dependent baseline fluorescence was fitted using a second-order polynomial, and subtracted to the fluorescence. Fluorescence levels were next averaged over the two ROI for each peptide and Z-normalized. […] The Z-scores were averaged over the five repetitions to yield one fluorescence score per peptide.

[1] = max over the spots listed under Location on chip
[2] = mean over the spots listed under Location on chip
[3] = GST-tagged Cn, max over the chip locations
[4] = GST-tagged Cn, mean over the chip locations
[5] = GST-tagged Cn, max over the chip spots listed under Location on chip
[6] = GST-tagged Cn, mean over the chip spots listed under Location on chip
[7] = GST-tagged Cn, max over the spots named in Location on chip
[8] = GST-tagged Cn, mean over the spots named in Location on chip
[9] = GST-tagged Cn, max over the spots on the chip (two locations)
[10] = GST-tagged Cn, mean over the spots on the chip (two locations)
[11] = max over the chip locations listed for the peptide (two spots)
[12] = mean over the chip locations listed for the peptide (two spots)

TFWTNPQFRITLEEVD [SeqRBMlowT_245]
Chip Fluorescence (max) [1]: 2.7449
Chip Fluorescence (mean) [2]: 0.8824

GSMLVPAINIDYAPTN [SeqRBMlowT_5048]
Chip Fluorescence (max) [1]: 2.642
Chip Fluorescence (mean) [2]: 1.025

GVQANPQFTIKAMMTN [SeqRBM_9281]
Chip Fluorescence (max) [3]: -0.1422
Chip Fluorescence (mean) [4]: -2.366

ADEANPEITVTPAELP [SeqRBMlowT_396]
Chip Fluorescence (max) [5]: 0.3864
Chip Fluorescence (mean) [6]: -0.7137

TFWMNPQFKVKLEEVD [SeqRBMlowT_6848]
Chip Fluorescence (max) [7]: 1.645
Chip Fluorescence (mean) [8]: 1.054

LKDEFPEVRLNIISNL [SeqRBMlowT_1004]
Chip Fluorescence (max) [9]: 1.029
Chip Fluorescence (mean) [10]: 0.2404

TFWTNPQFKVKLEDVD [SeqRBMlowT_6885]
Chip Fluorescence (max) [7]: 1.498
Chip Fluorescence (mean) [8]: -0.7469

ADQELSSFQPFYIEAS [Seqshuffled_9636]
Chip Fluorescence (max) [5]: 0.9604
Chip Fluorescence (mean) [6]: 0.1044

TFWTNPQYRIKLTEPD [SeqRBMlowT_234]
Chip Fluorescence (max) [5]: 0.5195
Chip Fluorescence (mean) [6]: -0.7647

GGPGTPGRQGQHLAPS [SeqRBMlowT_7794]
Chip Fluorescence (max) [3]: 0.3619
Chip Fluorescence (mean) [4]: -1.021

TEWNNPQQIVGPTEGD [SeqRBM_3582]
Chip Fluorescence (max) [3]: 0.1516
Chip Fluorescence (mean) [4]: -1.002

TFWTNPQFKITLEEED [SeqRBMlowT_217]
Chip Fluorescence (max) [11]: 4.393
Chip Fluorescence (mean) [12]: 0.02338

YPPGTPTKQGQQMAPS [SeqRTS1_Aspergillus_carbonarius]
Chip Fluorescence (max) [3]: -0.3471
Chip Fluorescence (mean) [4]: -1.955

KEGPISSTVVMEALSI [SeqRBM_843]
Chip Fluorescence (max) [5]: 0.8382
Chip Fluorescence (mean) [6]: -0.2608

LAFALPAFSFAAMKSA [SeqRBM_4599]
Chip Fluorescence (max) [3]: -0.5301
Chip Fluorescence (mean) [4]: -2.0266

TFWTNPQFRIKLEDVD [SeqRBMlowT_2]
Chip Fluorescence (max) [5]: 0.5307
Chip Fluorescence (mean) [6]: -0.7635

RAYINPFMQFIDGGRK [SeqRBMlowT_4070]
Chip Fluorescence (max) [11]: 3.668
Chip Fluorescence (mean) [12]: 2.003

QASKNSNMQRSFHVNA [Seqshuffled_9426]
Chip Fluorescence (max) [5]: 0.8318
Chip Fluorescence (mean) [6]: -0.05808

VYWSNPQFIVKLEMVD [SeqRBM_6287]
Chip Fluorescence (max) [1]: 2.588
Chip Fluorescence (mean) [2]: 1.027

TFWTNPQYRIKLEEPD [SeqRBMlowT_34]
Chip Fluorescence (max) [3]: 0.1832
Chip Fluorescence (mean) [4]: -0.5691

ASEAAPTINIDFAPNP [SeqRBMlowT_1832]
Chip Fluorescence (max) [11]: 4.3558
Chip Fluorescence (mean) [12]: -0.1882

LKDEIPEVRLNIISNL [SeqRBMlowT_1003]
Chip Fluorescence (max) [11]: 3.957
Chip Fluorescence (mean) [12]: 2.453

PSSCTPHLYARVHKGQ [SeqRBM_1451]
Chip Fluorescence (max) [3]: 0.2872
Chip Fluorescence (mean) [4]: -1.296

SPSNPPEIIISSREDN [SeqKCNN2_Mus_musculus]
Chip Fluorescence (max) [1]: 3.195
Chip Fluorescence (mean) [2]: 0.7018

SFWTNPQFKITLEEPD [SeqRBMlowT_6820]
Chip Fluorescence (max) [11]: 5.89
Chip Fluorescence (mean) [12]: 1.37

AFLATPSIIIHPPEGP [SeqRBM_2675]
Chip Fluorescence (max) [5]: 0.739
Chip Fluorescence (mean) [6]: -0.5185

PNLYENTLGIEQFTLS [SeqRBM_7749]
Chip Fluorescence (max) [7]: 1.865
Chip Fluorescence (mean) [8]: 0.2079

PSDDQPGIIVHPAEED [SeqRBMlowT_1217]
Chip Fluorescence (max) [1]: 2.878
Chip Fluorescence (mean) [2]: -0.2496

SVWENATVRFNFFPDN [Seqshuffled_9917]
Chip Fluorescence (max) [1]: 3.124
Chip Fluorescence (mean) [2]: 1.438

NAWKNPGQETHTTKKL [Seqshuffled_9929]
Chip Fluorescence (max) [7]: 1.453
Chip Fluorescence (mean) [8]: -0.5656

RNPGQALLTLRGHSKQ [SeqRBMlowT_6189]
Chip Fluorescence (max) [7]: 1.609
Chip Fluorescence (mean) [8]: 0.3772

ATSFVPQLASTLFSLW [SeqRBM_1383]
Chip Fluorescence (max) [5]: 0.6271
Chip Fluorescence (mean) [6]: -0.8819

YRDSWVTACQKIQSKI [Seqrandom_9988]
Chip Fluorescence (max) [1]: 3.109
Chip Fluorescence (mean) [2]: 0.4888

PSALIPSLSMDPSMSE [SeqRBM_6067]
Chip Fluorescence (max) [11]: 4.106
Chip Fluorescence (mean) [12]: 0.6019

TFHREPQNRLYVLSAV [SeqRBM_456]
Chip Fluorescence (max) [3]: 0.238
Chip Fluorescence (mean) [4]: -1.007

ARSFCPHRQVLSCKPK [SeqRBM_8304]
Chip Fluorescence (max) [11]: 4.921
Chip Fluorescence (mean) [12]: 0.2408

TFWTNPQYRITLDSSD [SeqRBMlowT_972]
Chip Fluorescence (max) [7]: 1.828
Chip Fluorescence (mean) [8]: -0.3429

SQAKSPRIEITAYTHV [SeqRBM_8514]
Chip Fluorescence (max) [5]: 0.9232
Chip Fluorescence (mean) [6]: -0.444

PGLYENALGMESFSIS [SeqCRZ1_Ajellomyces_capsulatus]
Chip Fluorescence (max) [7]: 1.795
Chip Fluorescence (mean) [8]: 0.6954

AKDDPPKIQVHPPEED [SeqRBMlowT_9786]
Chip Fluorescence (max) [9]: 1.098
Chip Fluorescence (mean) [10]: -0.565

GASMCPAMSWQDCGQR [SeqSFB3_Iconisemion_striatum]
Chip Fluorescence (max) [7]: 1.507
Chip Fluorescence (mean) [8]: 0.3571

RQPGQALLTLRGHSAS [SeqRBMlowT_5869]
Chip Fluorescence (max) [5]: 0.727
Chip Fluorescence (mean) [6]: -0.3106

RQPGQALLTLRGHSAP [SeqRBMlowT_5806]
Chip Fluorescence (max) [7]: 1.328
Chip Fluorescence (mean) [8]: -0.3044

DSLYQEVLGIRSFSLS [SeqRBM_8930]
Chip Fluorescence (max) [5]: 0.6781
Chip Fluorescence (mean) [6]: 0.06214

THTKISSFRGDAEPAP [Seqshuffled_9494]
Chip Fluorescence (max) [3]: 0.1716
Chip Fluorescence (mean) [4]: -0.4714

SDEAGPRIVITATELP [SeqRBMlowT_4492]
Chip Fluorescence (max) [1]: 2.835
Chip Fluorescence (mean) [2]: 0.5943

KAYMCPFMSFIDGGQR [SeqRBMlowT_3665]
Chip Fluorescence (max) [1]: 2.726
Chip Fluorescence (mean) [2]: 0.3874

KSKLIPKLSFQSPVHH [SeqRBMlowT_3425]
Chip Fluorescence (max) [3]: 0.2205
Chip Fluorescence (mean) [4]: -0.7902
